Data: US9315503B2, “Kinase inhibitors” (CHIESI FARMACEUTICI S.p.A., priority 2011, dated 2016)
Structures can show the parent of a compound that is named as a salt.

target: T1, p38alpha (Homo sapiens, UniProt Q16539); assay: P38Alpha enzyme inhibition assay (Alphascreen kinase activity assay); type: biochemical; settings: 100 pM p38alpha, 250 μM ATP, 2 hours pre-incubation at 25° C., read-out: p38α inhibition (IC50 values)
T1 construct: purchased Invitrogen PV3304
Protocol: P38Alpha Enzyme Inhibition Assay.
The inhibitory activity of compounds was determined using an Alphascreen® (Perkin Elmer) based kinase activity assay. Kinase reactions consisted of 25 mM HEPES pH 7.5, 10 mM MgCl2, 100 μM Na3VO4, 2 mM DTT, 0.05 mg/ml Tween 20, 100 pM p38alpha (Invitrogen, PV3304), 1% DMSO and 0.3 μg/ml ATF-2 fusion protein (New England Biolabs, 9224). Compounds were incubated under these conditions for 2 hours, at 25° C., prior to the initiation of the kinase activity by the addition of the 250 μM ATP. Reaction volumes were 20 uL. After 1 hr at 25° C. reactions were stopped by the adding 10 uL of 25 mM HEPES pH 7.5 containing 62.5 mM EDTA, 0.05% Triton X-100, 10% BSA and 0.83 ng/uL anti-phospho-ATF2 antibody (Abeam, ab28812). Detection was performed by measuring luminescence following the addition of Alphascreen Donor beads (Perkin Elmer 6765300) and Protein A Alphascreen Acceptor beads (Perkin Elmer 6760137), both at a final concentration of 20 ug/ml. IC50 values were determined from concentration-response curves.

T1 sequence (Q16539 whole entry): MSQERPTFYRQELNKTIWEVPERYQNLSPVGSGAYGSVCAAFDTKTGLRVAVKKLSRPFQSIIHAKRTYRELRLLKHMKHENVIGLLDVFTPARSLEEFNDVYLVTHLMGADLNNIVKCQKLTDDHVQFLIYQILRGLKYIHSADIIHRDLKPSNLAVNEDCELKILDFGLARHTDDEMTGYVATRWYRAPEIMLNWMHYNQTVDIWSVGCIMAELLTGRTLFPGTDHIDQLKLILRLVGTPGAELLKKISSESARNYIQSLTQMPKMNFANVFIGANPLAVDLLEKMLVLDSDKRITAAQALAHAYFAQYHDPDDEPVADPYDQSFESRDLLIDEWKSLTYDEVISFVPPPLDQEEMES

IC50, < 10 nM:
C[C@H]1CCCCN1c1nnc2ccc(O[C@@H]3CC[C@H](NC(=O)Nc4cc(C(C)(C)C)nn4-c4ccnc(N(C)CCN(C)C)n4)c4ccccc43)cn12 [Example 140]
C[C@H]1COCCN1c1nnc2ccc(O[C@@H]3CC[C@H](NC(=O)Nc4cc(C(C)(C)C)nn4-c4cccc(OCCN(C)C)c4)c4ccccc43)cn12 [Example 141, 1-{5-tert-Butyl-2-[3-(2-dimethylamino-ethoxy)-phenyl]-2H-pyrazol-3-yl}-3-{(1S,4R)-4-[3-((S)-3-methyl-morpholin-4-yl)-[1,2,4]triazolo[4,3-a]pyridin-6-yloxy]-1,2,3,4-tetrahydro-naphthalen-1-yl}-urea formate salt]
C[C@H]1COCCN1c1nnc2ccc(O[C@@H]3CC[C@H](NC(=O)Nc4cc(C(C)(C)C)nn4CCN4CCOCC4)c4ccccc43)cn12 [Example 142, 1-[5-tert-Butyl-2-(2-morpholin-4-yl-ethyl)-2H-pyrazol-3-yl]-3-{(1S,4R)-4-[3-((S)-3-methyl-morpholin-4-yl)-[1,2,4]triazolo[4,3-a]pyridin-6-yloxy]-1,2,3,4-tetrahydro-naphthalen-1-yl}-urea formate salt]
C[C@@H]1CCC[C@H](C)N1c1nnc2ccc(O[C@@H]3CC[C@H](NC(=O)Nc4cc(C(C)(C)C)nn4-c4cccc(CN5CCN(C)CC5)c4)c4ccccc43)cn12 [Example 143, 1-{5-tert-Butyl-2-[3-(4-methyl-piperazin-1-ylmethyl)-phenyl]-2H-pyrazol-3-yl}-3-{(1S,4R)-4-[3-((2S,6R)-2,6-dimethyl-piperidin-1-yl)-[1,2,4]triazolo[4,3-a]pyridin-6-yloxy]-1,2,3,4-tetrahydro-naphthalen-1-yl}-urea formate salt]
C[C@@H]1CCC[C@H](C)N1c1nnc2ccc(O[C@@H]3CC[C@H](NC(=O)Nc4cc(C(C)(C)C)nn4-c4cccc(CN5CCCC5)c4)c4ccccc43)cn12 [Example 144, 1-[5-tert-Butyl-2-(3-pyrrolidin-1-ylmethyl-phenyl)-2H-pyrazol-3-yl]-3-{(1S,4R)-4-[3-((2S,6R)-2,6-dimethyl-piperidin-1-yl)-[1,2,4]triazolo[4,3-a]pyridin-6-yloxy]-1,2,3,4-tetrahydro-naphthalen-1-yl}-urea formate salt]
CN(C)CCOc1cccc(-n2nc(C(C)(C)C)cc2NC(=O)N[C@H]2CC[C@@H](Oc3ccc4nnc(N5CCCCC56CC6)n4c3)c3ccccc32)c1 [Example 148, 1-{(1S,4R)-4-[3-(4-Aza-spiro[2.5]oct-4-yl)-[1,2,4]triazolo[4,3-a]pyridin-6-yloxy]-1,2,3,4-tetrahydro-naphthalen-1-yl}-3-{5-tert-butyl-2-[3-(2-dimethylamino-ethoxy)-phenyl]-2H-pyrazol-3-yl}-urea formate salt]
C[C@H]1CCCCN1c1nnc2ccc(O[C@@H]3CC[C@H](NC(=O)Nc4cc(C(C)(C)C)nn4-c4cccc(OCCN5CCCC5)c4)c4ccccc43)cn12 [Example 154, 1-{5-tert-Butyl-2-[3-(2-pyrrolidin-1-yl-ethoxy)-phenyl]-2H-pyrazol-3-yl}-3-{(1S,4R)-4-[3-((S)-2-methyl-piperidin-1-yl)-[1,2,4]triazolo[4,3-a]pyridin-6-yloxy]-1,2,3,4-tetrahydro-naphthalen-1-yl}-urea formate salt]
CCN(CC)CCOc1cccc(-n2nc(C(C)(C)C)cc2NC(=O)N[C@H]2CC[C@@H](Oc3ccc4nnc(N5CCCC[C@@H]5C)n4c3)c3ccccc32)c1 [Example 155, 1-{5-tert-Butyl-2-[3-(2-diethylamino-ethoxy)-phenyl]-2H-pyrazol-3-yl}-3-{(1S,4R)-4-[3-((S)-2-methyl-piperidin-1-yl)-[1,2,4]triazolo[4,3-a]pyridin-6-yloxy]-1,2,3,4-tetrahydro-naphthalen-1-yl}-urea formate salt]
C[C@H]1CCCCN1c1nnc2ccc(O[C@@H]3CC[C@H](NC(=O)Nc4cc(C(C)(C)C)nn4-c4cccc(OCCN5CCOCC5)c4)c4ccccc43)cn12 [Example 156, 1-{5-tert-Butyl-2-[3-(2-morpholin-4-yl-ethoxy)-phenyl]-2H-pyrazol-3-yl}-3-{(1S,4R)-4-[3-((S)-2-methyl-piperidin-1-yl)-[1,2,4]triazolo[4,3-a]pyridin-6-yloxy]-1,2,3,4-tetrahydro-naphthalen-1-yl}-urea partial formate salt]
C[C@H]1CCCCN1c1nnc2ccc(O[C@@H]3CC[C@H](NC(=O)Nc4cc(C(C)(C)C)nn4-c4cccc(OCCN5CCCCC5)c4)c4ccccc43)cn12 [Example 157, 1-{5-tert-Butyl-2-[3-(2-piperidin-1-yl-ethoxy)-phenyl]-2H-pyrazol-3-yl}-3-{(1S,4R)-4-[3-((S)-2-methyl-piperidin-1-yl)-[1,2,4]triazolo[4,3-a]pyridin-6-yloxy]-1,2,3,4-tetrahydro-naphthalen-1-yl}-urea formate salt]
C[C@H]1CCCCN1c1nnc2ccc(O[C@@H]3CC[C@H](NC(=O)Nc4cc(C(C)(C)C)nn4-c4cccc(OCCN5CCN(C)CC5)c4)c4ccccc43)cn12 [Example 158, 1-(5-tert-Butyl-2-{3-[2-(4-methyl-piperazin-1-yl)-ethoxy]-phenyl}-2H-pyrazol-3-yl)-3-{(1S,4R)-4-[3-((S)-2-methyl-piperidin-1-yl)-[1,2,4]triazolo[4,3-a]pyridin-6-yloxy]-1,2,3,4-tetrahydro-naphthalen-1-yl}-urea formate salt]
C[C@H]1CCCCN1c1nnc2ccc(O[C@@H]3CC[C@H](NC(=O)Nc4cc(C(C)(C)C)nn4-c4cccc(OCCN5CCC(F)CC5)c4)c4ccccc43)cn12 [Example 159, 1-{5-tert-Butyl-2-{3-[2-(4-fluoropiperidin-1-yl)-ethoxy]-phenyl}-2H-pyrazol-3-yl}-3-{(1S,4R)-4-[3-((S)-2-methyl-piperidin-1-yl)-[1,2,4]triazolo[4,3-a]pyridin-6-yloxy]-1,2,3,4-tetrahydro-naphthalen-1-yl}-urea formate salt]
C[C@H]1CCCCN1c1nnc2ccc(O[C@@H]3CC[C@H](NC(=O)Nc4cc(C(C)(C)C)nn4-c4cccc(OCCN5CCCN(C)CC5)c4)c4ccccc43)cn12 [Example 160, 1-(5-tert-Butyl-2-{3-[2-(4-methyl-[1,4]-diazepan-1-yl)-ethoxy]-phenyl}-2H-pyrazol-3-yl)-3-{(1S,4R)-4-[3-((S)-2-methyl-piperidin-1-yl)-[1,2,4]triazolo[4,3-a]pyridin-6-yloxy]-1,2,3,4-tetrahydro-naphthalen-1-yl}-urea formate salt]
C[C@H]1CCCCN1c1nnc2ccc(O[C@@H]3CC[C@H](NC(=O)Nc4cc(C(C)(C)C)nn4-c4cccc(OCCN5C6CCCC5CC6)c4)c4ccccc43)cn12 [Example 162, 1-(2-{3-[2-(8-Aza-bicyclo[3.2.1]oct-8-yl)-ethoxy]-phenyl}-5-tert-butyl-2H-pyrazol-3-yl)-3-{(1S,4R)-4-[3-((S)-2-methyl-piperidin-1-yl)-[1,2,4]triazolo[4,3-a]pyridin-6-yloxy]-1,2,3,4-tetrahydro-naphthalen-1-yl}-urea formate salt]
CCN(C)CCOc1cccc(-n2nc(C(C)(C)C)cc2NC(=O)N[C@H]2CC[C@@H](Oc3ccc4nnc(N5CCCC[C@@H]5C)n4c3)c3ccccc32)c1 [Example 163, 1-(5-tert-Butyl-2-{3-[2-(ethyl-methyl-amino)-ethoxy]-phenyl}-2H-pyrazol-3-yl)-3-{(1S,4R)-4-[3-((S)-2-methyl-piperidin-1-yl)-[1,2,4]triazolo[4,3-a]pyridin-6-yloxy]-1,2,3,4-tetrahydro-naphthalen-1-yl}-urea formate salt]
COC1CCN(CCOc2cccc(-n3nc(C(C)(C)C)cc3NC(=O)N[C@H]3CC[C@@H](Oc4ccc5nnc(N6CCCC[C@@H]6C)n5c4)c4ccccc43)c2)CC1 [Example 165, 1-(5-tert-Butyl-2-{3-[2-(4-methoxy-piperidin-1-yl-ethoxy]-phenyl}-2H-pyrazol-3-yl)-3-{(1S,4R)-4-[3-((S)-2-methyl-piperidin-1-yl)-[1,2,4]triazolo[4,3-a]pyridin-6-yloxy]-1,2,3,4-tetrahydro-naphthalen-1-yl}-urea formate salt]
C[C@H]1CCCCN1c1nnc2ccc(O[C@@H]3CC[C@H](NC(=O)Nc4cc(C(C)(C)C)nn4-c4cccc(OCCN5C6CCC5COC6)c4)c4ccccc43)cn12 [Example 166, 1-(5-tert-Butyl-2-{3-[2-(3-oxa-8-aza-bicyclo[3.2.1]oct-8-yl)-ethoxy]-phenyl}-2H-pyrazol-3-yl)-3-{(1S,4R)-4-[3-((S)-2-methyl-piperidin-1-yl)-[1,2,4]triazolo[4,3-a]pyridin-6-yloxy]-1,2,3,4-tetrahydro-naphthalen-1-yl}-urea formate salt]
COC1CCN(Cc2cccc(-n3nc(C(C)(C)C)cc3NC(=O)N[C@H]3CC[C@@H](Oc4ccc5nnc(N6CCCC[C@@H]6C)n5c4)c4ccccc43)c2)CC1 [Example 167, 1-{5-tert-Butyl-2-[3-(4-methoxy-piperidin-1-ylmethyl)-phenyl]-2H-pyrazol-3-yl}-3-{(1S,4R)-4-[3-((S)-2-methyl-piperidin-1-yl)-[1,2,4]triazolo[4,3-a]pyridin-6-yloxy]-1,2,3,4-tetrahydro-naphthalen-1-yl}-urea formate salt]
